{"source": "patent US20080280996A1", "about": "“Use of Carophyllenes in the Manufacture of Medicaments and Treatment of Bodily Conditions of Inflammation and Inflammatory Pain” (priority 2004, published 2008)", "key": {"[1]": {"system": "carrageenin-induced inflammatory nociception in the hind paw", "test": "Inflammatory nociception induced by carrageenin (von Frey filament)", "format": "in vivo", "settings": "mice, carrageenin 300 μg per paw intraplantar; alpha-humulene 50 mg/kg orally or paracetamol 600 mg/kg orally, 1 h before; evaluated after 3, 4 and 6 hours", "method": "The evaluation methodology used in this test is described by Vaz et al. in J. Pharmacol. Exp. Ther. 278:304-312, 1996. Male mice (25-35 g) were systemically (orally) treated with alpha-humulene, 50 mg/kg, administered 1 hour before the experiment. Animals treated with 0.9% saline solution (0.1 ml/10 g) were used as the control. Another group of animals was treated with paracetamol (600 mg/kg, orally, administered 1 h before the treatment), that was used as positive control. For the induction of inflammatory pain, the animals received an intraplantar injection of 0.05 ml of carrageenin (300 μg per paw) at the plantar surface of the right hind paw. […] The nociception was evaluated with a Von Frey filament (0.4 g) after 3, 4 and 6 hours. […] The filament was applied to the right hind paw, complying with the criteria of (1) the application was perpendicular to the plantar surface, with enough pressure to cause the filament to bend, thus obtaining total pressure; (2) the animals were evaluated when the four paws were touching the screen; (3) the paw withdrawal response was considered when the animal removed the paw entirely from the support screen; (4) each animal was stimulated 10 consecutive times, each stimulation lasting 1 second; (5) each paw withdrawal event was considered as 10% of the response, with 10 withdrawal events corresponding to 100% response. […]"}, "IL-1β": {"system": "IL-1β", "test": "Levels of pro-inflammatory cytokine IL-1β in carrageenin-injected rat paw (Elisa)", "format": "in vivo", "settings": "50 mg/kg orally 60 minutes before carrageenin 300 μg/paw, tissue after 180 minutes", "method": "The test used below is described by Campos et. al. in the publication Br. J. Pharmacol. 135: 1107-1114, 2002, with minor modifications. Male 160-180 g rats were orally given 50 mg/kg of alpha-humulene. Animals treated with 0.9% (0.1 ml/10 g) saline were used as control. Another group of animals was treated with 0.5 mg/kg dexamethasone, subcutaneously, 4 hours before the test, and used as positive control. After 60 minutes, the animals received intraplantar injections of 100 μl of carrageenin (300 μg/paw) and were sacrificed after 180 minutes. Control animals received saline. The subcutaneous tissue of the injected paws was removed and put in a phosphate buffer containing 0.5% tween 20, 0.1 mM benzametonium chloride, 10 mM EDTA, 2 μg/m aprotinin, 0.1 mM PMSF (phenyl methyl sulfonyl fluoride) and 0.5% BSA (bovine serum albumin). The tissues were homogenized and centrifuged at 3000 g, for 10 min, at −4° C. The supernatant was used in the test. The levels of IL-1β were measures with an Elisa kit, according to the manufacturer's instructions (R & D Systems®, USA). The tests were performed in duplicate, and repeated three times. The answers are expressed in pg/mg of tissue. […]"}, "[2]": {"settings": "reference: Carcinogenesis (2002), 23(5), 795-802; cited from earlier work"}}, "data": [{"molecule": "C/C1=C\\CC/C(C)=C/CC(C)(C)/C=C/C1", "note": "[alpha-humulene]", "values": [{"measurement": "inflammatory nociception (paw withdrawal response to 0.4 g von Frey filament)", "setting": "[1]", "value": "reduced the inflammatory nociception"}, {"measurement": "production of pro-inflammatory cytokine IL-1β induced by carrageenin in the paws of rats", "setting": "IL-1β", "value": "markedly inhibited the production"}, {"measurement": "anti-inflammatory or chemo-therapic effects", "setting": "[2]", "value": "virtually inactive"}]}]}
